This note sets out measurements from PMC2873071 (Nature chemical biology, 2010).

What is called IC50 is the concentration that inhibits the measured activity by half.

For the experiment, the target named is T1, glucocerebrosidase (GC; Cerezyme, recombinant WT GC) (Homo sapiens, UniProt P04062).
T1 sequence (P04062 40-536): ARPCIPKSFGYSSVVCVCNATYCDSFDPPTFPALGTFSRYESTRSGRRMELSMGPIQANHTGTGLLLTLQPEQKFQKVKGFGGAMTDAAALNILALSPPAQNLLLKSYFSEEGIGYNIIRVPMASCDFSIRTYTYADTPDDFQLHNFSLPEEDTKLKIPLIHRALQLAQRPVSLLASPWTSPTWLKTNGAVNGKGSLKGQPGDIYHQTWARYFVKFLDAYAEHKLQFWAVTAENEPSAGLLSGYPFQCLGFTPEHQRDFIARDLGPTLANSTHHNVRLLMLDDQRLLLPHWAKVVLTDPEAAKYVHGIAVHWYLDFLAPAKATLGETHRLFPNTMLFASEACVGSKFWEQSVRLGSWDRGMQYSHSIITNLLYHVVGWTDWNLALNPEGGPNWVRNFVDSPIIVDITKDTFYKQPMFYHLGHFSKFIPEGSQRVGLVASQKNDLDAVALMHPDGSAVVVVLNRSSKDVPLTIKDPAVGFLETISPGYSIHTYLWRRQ
As to the kind of experiment: in vitro enzyme inhibition assay with recombinant GC. It counts as biochemical.

On to `O=C1CN(/N=C/c2ccc(-c3ccc([N+](=O)[O-])cc3)o2)C(O)=N1` [compound 3, dantrolene], for which the IC50 was about 90 µM.
